From paper PMC10084252, “PAF‐induced inflammatory and immuno‐allergic ophthalmic diseases and their mitigation with PAF receptor antagonists: Cell and nuclear effects” (Biofactors (Oxford, England), 2022)
Where two headings read alike, the source gives them in different places. Where no end group is shown, it is not given here.

Legend:
[1] = parameters: method as in PMID 20454616, PMID 21804199, PMID 23355413, PMID 28341636; conditions: cited from earlier work
PAF receptor [2] = biological target: PAF receptor (Oryctolagus cuniculus, UniProt G1TEI7); assay: [3H]‐PAF receptor binding to rabbit platelet membranes; conditions: read-out: [3H]‐PAF receptor binding inhibition constant (Ki, nM; Mean ± SEM)
From the text: (§1) FIGURE 5 Pharmacological profile of PAR receptor binding to platelet membranes. Figure 5A depicts the concentration‐dependent inhibition by unlabeled PAF receptor antagonists of different affinities for [^3H]‐PAF binding to rabbit platelet membranes in vitro. Figure 5B illustrates the correlation between the pharmacological profile of PAF receptor antagonists competing for [^3H]‐PAF binding to rabbit and human platelet membranes.

PAF receptor [3] = biological target: T1, PAF receptor (Homo sapiens, UniProt P25105); assay: [3H]‐PAF binding to human platelet membranes
T1 construct: from tissue; host or cells: human platelet membranes
From the text: FIGURE 5 Pharmacological profile of PAR receptor binding to platelet membranes.

rod outer segments = system: rod outer segments; parameters: method as in PMID 1427144; conditions: lithium‐ and light‐induced retinal degenerations animal models; cited from earlier work
patients [4] = system: patients; parameters: method as in PMID 31816871; conditions: cited from earlier work
animals = system: animals; parameters: method as in PMID 7859817; conditions: intravitreally injected PAF, pretreatment; cited from earlier work
naïve mice = system: naïve mice; parameters: method as in PMID 15326102, PMID 20961214, PMID 24754407, PMID 2891830, PMID 8529415; conditions: cited from earlier work
PAF receptor [5] = biological target: T1, PAF receptor; assay: [3H]‐WEB‐2086 binding to human platelet membranes; conditions: read-out: [3H]‐WEB‐2086 binding inhibition constant (Ki, nM; Mean ± SEM)
[6] = system: human conjunctival epithelial cells (HCECs); parameters: method as in PMID 19513187; conditions: cited from earlier work
[7] = system: retinal capillary endothelial cells; parameters: method as in PMID 12356842; conditions: rat pups exposed to high levels of oxygen (model of ROP), prior treatment; cited from earlier work
[8] = system: human conjunctival epithelial cells (HCECs); parameters: method as in PMID 19513187; conditions: cited from earlier work; remark: listed apart in the source
[9] = system: human conjunctival epithelial cells (HCECs); parameters: method as in PMID 9261768; conditions: cited from earlier work; for EC50: read-out: EC50 for increase of [3H]‐IPs
photoreceptors = system: photoreceptors; parameters: method as in PMID 15979612; conditions: retinal ischemia / oxidative stress; cited from earlier work
human chronic diseases = system: human chronic diseases; parameters: method as in PMID 31816871; conditions: ulcerative colitis, myocardiac infarction, organ failure associated with pancreatitis, cognitive decline after bypass surgery, psoriasis; cited from earlier work
HCEPI/CEPI‐17‐CL4 cells = system: HCEPI/CEPI‐17‐CL4 cells; parameters: method as in PMID 9856766, PMID 9559896, PMID 9863665, PMID 10235542, PMID 20187806; conditions: cited from earlier work
[10] = system: patients suffering from rhinitis; parameters: method as in PMID 23459334, PMID 31470575; conditions: oral, 4‐week period of dosing; cited from earlier work
HIS and PAF receptors = system: HIS and PAF receptors; parameters: method as in PMID 1793070; conditions: cited from earlier work
[11] = parameters: method as in PMID 31816871; conditions: cited from earlier work
asthma patients = system: asthma patients; parameters: method as in PMID 31816871; conditions: cited from earlier work
[12] = parameters: method as in PMID 31816871; conditions: cited from earlier work; remark: listed apart in the source
[13] = system: laser‐induced choroidal neovascularization (CNV) in mice; parameters: method as in PMID 23826375; conditions: cited from earlier work
rats = system: rats; parameters: method as in PMID 9845270; conditions: streptozotocin‐induced diabetes in rats; cited from earlier work
[14] = parameters: method as in PMID 31816871; conditions: cited from earlier work; remark: listed apart in the source
patients [15] = system: patients; parameters: method as in PMID 31816871; conditions: cited from earlier work; remark: listed apart in the source
[16] = system: PAF receptors on rabbit and human platelets; assay: PAF receptor binding on platelets; conditions: Figure 5
From the text: as §1

[17] = biological target: PAF receptors in the bovine and rabbit cornea; parameters: method as in PMID 10067986; conditions: cited from earlier work
[18] = human platelet membranes, read-out: [3H]‐PAF receptor binding inhibition constant (Ki, nM; Mean ± SEM)

PAF receptor (Oryctolagus cuniculus, UniProt G1TEI7), sequence (G1TEI7 1-342): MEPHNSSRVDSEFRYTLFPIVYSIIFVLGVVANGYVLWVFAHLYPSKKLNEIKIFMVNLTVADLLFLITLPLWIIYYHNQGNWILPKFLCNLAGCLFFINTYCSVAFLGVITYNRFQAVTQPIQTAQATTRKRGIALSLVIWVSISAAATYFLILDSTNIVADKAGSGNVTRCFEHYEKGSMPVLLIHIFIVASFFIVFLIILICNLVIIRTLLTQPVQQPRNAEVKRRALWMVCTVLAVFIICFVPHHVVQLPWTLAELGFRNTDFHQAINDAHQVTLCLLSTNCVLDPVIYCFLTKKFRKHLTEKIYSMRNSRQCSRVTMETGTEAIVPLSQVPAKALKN
T1 sequence (P25105 whole entry): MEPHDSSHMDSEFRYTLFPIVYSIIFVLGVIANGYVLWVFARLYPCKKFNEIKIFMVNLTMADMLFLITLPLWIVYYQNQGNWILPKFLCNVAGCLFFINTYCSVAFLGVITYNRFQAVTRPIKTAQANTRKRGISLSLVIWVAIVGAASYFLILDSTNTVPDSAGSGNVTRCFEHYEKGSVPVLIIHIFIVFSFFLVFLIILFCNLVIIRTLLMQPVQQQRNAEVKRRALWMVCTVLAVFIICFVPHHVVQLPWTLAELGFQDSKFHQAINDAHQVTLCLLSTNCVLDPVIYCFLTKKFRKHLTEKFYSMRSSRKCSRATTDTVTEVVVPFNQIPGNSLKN

C#Cc1cccc2c1c(C(=O)c1ccc(Cn3c(C)nc4cnccc43)c(F)c1)cn2C(=O)N(C)C [ABT‐491]
Pain induced by ATP‐triggered PAF release [1]: blocked

CN(C)C(=O)n1cc(C(=O)c2ccn3c2CS[C@@H]3c2cccnc2)c2ccc(-c3ccc(F)cc3)cc21 [A‐85783]
Ki (PAF receptor [2]): 6.9 ± 1 nM

C#Cc1cccc2c1c(C(=O)c1ccc(Cn3c(C)nc4cnccc43)c(F)c1)cn2C(=O)N(C)C [A‐137491]
Ki (PAF receptor [3]): 3.9 ± 0.5 nM

COc1ccc(NC(=S)N2CCc3c(sc4c3C(c3ccccc3Cl)=NCc3nnc(C)n3-4)C2)cc1 [BN‐50730 (Rocipafant) LAU‐8080, Rocipafant]
Ki (PAF receptor [2]): 44.8 ± 7.2 nM

COc1ccc(SCC(=S)N2CCc3c(sc4c3C(c3ccccc3Cl)=NCc3nnc(C)n3-4)C2)cc1OC [BN‐50739]
Ki (PAF receptor [3]; [18]): 53.4 ± 1.9 nM
Ki (PAF receptor [2]): 28.6 ± 8.4 nM

CC1C(=O)OC2C(O)C34C5CC(C(C)(C)C)C36C(OC(=O)C6O)OC4(C(=O)O5)C12O (stereo not drawn) [BN‐52021(Ginkolide B), Ginkgolide B]
Damage to rod outer segments (rod outer segments): effectively suppressed
PAF levels in patients (patients [4]): reduction
PAF‐induced disruption of choroidal endothelial cell layer and polymorphonuclear leukocyte infiltration (animals): mostly abolished
PAF‐induced ocular surface neovascularization (naïve mice): inhibited

CCCCCCCCCCCCCCCCCCNC(=O)OCC(COP(=O)([O-])OCC[n+]1ccsc1)OC (stereo not drawn) [CV‐3988]
Ki (PAF receptor [5]): 3780 ± 759 nM
Ki (PAF receptor [3]; [18]): 3090 ± 889 nM
Ki (PAF receptor [2]): 2900 ± 240 nM
Antagonism of PAF‐induced [Ca2+]i mobilization [6]: antagonized
PAF‐induced ocular surface neovascularization (naïve mice): inhibited
Loss of retinal capillary endothelial cells [7]: reduced
Effect on PAF‐induced synthesis and secretion of IL‐6, IL‐8 and GM‐CSF [8]: curtailed

Cc1nnc2n1-c1sc3c(c1C(c1ccccc1Cl)=N[C@H]2C)CCN(C(=O)C1CC1)C3 [E‐6123]
Ki (PAF receptor [2]): 9.3 ± 0.3 nM

NCCc1c[nH]cn1 [HIS, histamine]
EC50 [9]: 3.1 µM

CC1=C(C(=O)OCCOc2ccc(Cl)c(Cl)c2)C(C)C(C(=O)OC(CN2CCOCC2)CN2CCOCC2)=C(C)N1 (stereo not drawn) [LAU0901]
Protection of photoreceptors and their terminals (photoreceptors): efficaciously protected

CCCCC/C=C\C\C=C/C=C/C=C/[C@@H](SC[C@H](NC(=O)CC[C@H](N)C(=O)O)C(=O)NCC(=O)O)[C@@H](O)CCCC(=O)O [LTC4]
EC50 [9]: 0.3 µM

CCOC(=O)[C@H](CC(C)C)N(C)S(=O)(=O)c1ccc(Cn2c(C)nc3cnccc32)cc1 [Lexipafant]
Efficacy in multiple human chronic diseases (human chronic diseases): lack of efficacy

CCOC(=O)C1=C(c2ccc(-n3c(C)nc4cnccc43)cc2)NC(C)=C(C(=O)Nc2ccccn2)[C@H]1c1ccccc1Cl [Modipafant]
Efficacy in multiple human chronic diseases (human chronic diseases): lack of efficacy

CCOC[C@H](CC(C)C)N(C)S(=O)(=O)c1ccc(Cn2c(C)nc3cnccc32)cc1 [Nupafant]
Ki (PAF receptor [2]): 1.7 ± 0.6 nM

CCCCCCCCOc1ccccc1C(=O)Nc1ccc(C(=O)OCC[N+](C)(CC)CC)cc1 [Octylonium]
Ki (PAF receptor [3]; [18]): 4335 ± 17.8 nM

COC(=O)C1=C(C)NC(C)=C(C(=O)OCCSc2ccccc2)C1C (stereo not drawn) [PCA‐4248]
Effect on PAF‐induced IPs production (HCEPI/CEPI‐17‐CL4 cells): blocked
Ki (PAF receptor [3]; [18]): 634 nM
Antagonism of PAF‐induced [Ca2+]i mobilization [6]: antagonized
Effect on PAF‐induced synthesis and secretion of IL‐6, IL‐8 and GM‐CSF [8]: curtailed

CCCCC[C@H](O)/C=C/[C@@H]1[C@@H](C/C=C\CCCC(=O)O)[C@@H](O)C[C@H]1O [PGF2α]
Stimulation of [3H]‐IPs (in words) [9]: inactive

CCCCCCCCCCCCCCCCCCNC(=O)OC[C@@H](COCCCC[n+]1ccsc1)OC(=O)OC [RO‐19‐3704]
Ki (PAF receptor [2]): 201 ± 22.5 nM

Cc1cncc(CN2CCC(=C3c4ccc(Cl)cc4CCc4cccnc43)CC2)c1 [SCH‐37370 (Rupatadine), Rupatadine]
Nasal discharge, sneezing and nasal itching [10]: significantly reduced
Ocular itching [10]: significantly reduced
Affinities and potencies at both HIS and PAF receptors (in words) (HIS and PAF receptors): micromolar
Effects in chronic idiopathic urticaria and allergic rhino‐conjunctivitis [11]: beneficial effects

C[C@@H]1S[C@H](c2cccnc2)N(C)C1=O [SM‐10661]
Ki (PAF receptor [5]): 9850 ± 1350 nM
Ki (PAF receptor [3]; [18]): 22800 nM
Ki (PAF receptor [2]): 7490 ± 875 nM

CC(C)c1cc(C(C)C)c(-c2csc(N(CCN(C)C)Cc3cccnc3)n2)c(C(C)C)c1 [SR27417A]
Efficacy in multiple human chronic diseases (human chronic diseases): lack of efficacy
Efficacy in asthma patients (asthma patients): modest efficacy

CCC[n+]1cc(Br)cc(C(=O)N(CCC(=O)NCCOC(=O)N2CCc3ccccc3C2)c2ccccc2)c1.O=[N+]([O-])[O-] [TCV‐309]
Organ dysfunction and morbidity linked to septic shock [12]: reduction
Ki (PAF receptor [3]; [18]): 9.4 ± 3.1 nM
Ki (PAF receptor [2]): 5.5 ± 0.2 nM

Cc1nnc2n1-c1sc(CCC(=O)N3CCOCC3)cc1C(c1ccccc1Cl)=NC2 [WEB‐2086]
Choroidal neovascularization and subretinal fibrosis induced by PAF [13]: inhibited
Fluoresceine leakage (retinal vascular leakage) after laser‐induced CNV ([13]; mice, prior treatment, intraperitoneal and intravitreal administration): blockade
Retinal blood vessel density (rats): helped preserve
Erythema induced by UV‐light [14]: reduction

CC(C)(CCN1CCN(C(=O)C2CSC(c3cccnc3)N2)CC1)c1ccccc1 (stereo not drawn) [YM‐264]
Ki (PAF receptor [3]; [18]): 7.3 ± 1.8 nM
Ki (PAF receptor [2]): 5.1 ± 0.6 nM

Cc1nnc2n1-c1sc(CCc3ccc(CC(C)C)cc3)cc1C(c1ccccc1Cl)=NC2C (stereo not drawn) [Y‐24180]
Bronchial hyperresponsiveness (patients [15]): improvement

Clc1ccc2c(c1)CCc1cccnc1C2=C1CCNCC1 [des‐loratadine]
Nasal discharge, sneezing and nasal itching [10]: significantly reduced
Ocular itching [10]: significantly reduced

Hexanolamine
Ki (PAF receptor [2]): 164 ± 15.4 nM

bradykinin (RPPGFSPFR; Bradykinin; UniProt P01042 381-389, looked up) [BK, mast cell mediator]
EC50 [9]: 0.00083 µM

endothelin (CSCSSLMDKECVYFCHLDIIW; ends and bridges not checked; cysteine pairing not given here; UniProt P05305 53-73, looked up)
Stimulation of [3H]‐IPs (in words) [9]: inactive

platelet‐activating factor [PAF]
Ki (PAF receptor [5]): 26.5 ± 2 nM
Ki (PAF receptor [3]; [18]): 3.1 ± 0.6 nM
EC50 [9]: 0.0045 µM
Ki (PAF receptor [2]): 3.7 ± 0.4 nM
Kd [16]: 0.0005 µM
Kd [17]: 0.0008 to 0.0043 µM
EC50 ([6]; read-out: EC50 for [Ca2+]i mobilization): 0.00081 µM

substance P (RPKPQQFFGLM; ends and bridges not checked; UniProt P20366 58-68, looked up)
Stimulation of [3H]‐IPs (in words) [9]: inactive
